Values quoted from earlier work as cited in US20110184379A1, “METHOD AND SYSTEM TO DEFINE PATIENT SPECIFIC THERAPEUTIC REGIMENS BY MEANS OF PHARMACOKINETIC AND PHARMACODYNAMIC TOOLS” (MEDTRONIC, INC., priority 2008, published 2011).
Where two headings read alike, the source gives them in different places.

Columns and labels:
HCV [1] = test system: HCV
[2] = test system: chronic hepatitis C virus (HCV) genotype 1; conditions: for SVR at 24 weeks after the end of treatment (SVR 24): 28-week Boceprevir arm
HCV genotype-1 = conditions: 14-day course
HCV [3] = test system: HCV; remark: listed apart in the source
[4] = test system: genotype 1 HCV polymerases
HCV [5] = test system: HCV; remark: listed apart in the source
HCV [6] = conditions: for viral load reduction: oral
HCV [7] = test system: HCV; remark: listed apart in the source
[8] = preliminary review of blinded data, four completed cohorts
HCV genotype 1 = conditions: 5 days of dosing
[9] = test system: Hepatitis C virus replicon

In the case of `NC(=O)c1ncn([C@@H]2O[C@H](CO)[C@@H](O)[C@H]2O)n1` [ribavirin, 1-β-D-ribofuranosyl-1H-1,2,4-triazole-3-carboxamide], the efficacy (HCV [1]; monotherapy) is listed as “negligible efficacy”.
In the case of `CC(C)(C)NC(=O)N[C@H](C(=O)N1C[C@H]2[C@@H]([C@H]1C(=O)NC(CC1CCC1)C(=O)C(N)=O)C2(C)C)C(C)(C)C` (some centres unmarked) [SCH503034], the “SVR at 24 weeks after the end of treatment (SVR 24)” value ([2]; lead-in) is given as 56%, the “SVR at 24 weeks after the end of treatment (SVR 24)” value ([2]; no lead-in) is given as 55% and the “SVR rate at 12 weeks after the end of treatment (SVR 12)” value ([2]; 48-week regimen, 4 weeks PEGINTRON + REBETOL lead-in before Boceprevir 800 mg TID, ITT) is given as 74%. The “SVR 12” value ([2]; 48 weeks Boceprevir + PEGIntron + REBETOL from the beginning, no P/R lead-in) was 66%, the “SVR (ITT) in patients with rapid virologic response (RVR)” value ([2]; lead-in, 28-week regimen) was 82% and the “SVR (ITT) in patients with rapid virologic response (RVR)” value ([2]; lead-in, 48 week regimen) was 92%. For the same compound, the “maximum HCV RNA reduction” value (HCV genotype-1; 400 mg group) was “more than 2 logs” and the safety and tolerability (HCV genotype-1) was “safe and well-tolerated with no serious adverse events”.
In the case of `CC(C)C(=O)OC[C@H]1O[C@@H](n2ccc(N)nc2=O)[C@](C)(F)[C@@H]1OC(=O)C(C)C` [R71278], the “decrease in HCV RNA (viral load)” value (HCV [3]; 1,500 mg twice-daily arm) is listed as greater than 99%, the “antiviral activity across all dosing arms” value (HCV [3]; in vivo) is listed as “dose-dependent antiviral activity” and the safety and tolerability (HCV [3]; in vivo) is listed as “generally safe and well-tolerated with no serious adverse events”.
For `COC[C@H]1C[C@@](Cn2cccn2)(C(=O)O)N(C(=O)c2ccc(C(C)(C)C)c(OC)c2)[C@H]1c1nccs1` [GSK625433], the “inhibition of genotype 1 HCV polymerases” value [4] is given as “highly potent and selective inhibitor” and the “interaction with interferon in vitro” value [4] is given as “synergistic”.
In the case of `[N-]=[N+]=N[C@]1(CO)O[C@@H](n2ccc(N)nc2=O)[C@H](O)[C@@H]1O` [R1626, 4′-azidocytidine], the “End-of-Treatment Response” value (HCV [5]; 4 weeks R1626 + Peginterferon Alfa-2a (40 kd) + Ribavirin, then 44 weeks Peginterferon Alfa-2a + Ribavirin) is listed as 84%, the barrier to resistance (HCV [5]; in vivo) is listed as “high barrier to resistance” and the viral load reduction (HCV [6]; 100 mg dose (so in the source)) is listed as 1.2 log 10. For the same compound, the viral load reduction (HCV [6]; 300 mg dose (so in the source)) was 2.6 log 10, the viral load reduction (HCV [6]; 4500 mg dose) was 3.7 log 10 and the viral resistance (HCV [6]; human, in vivo) was “No viral resistance was found”. For the same compound, the tolerability (HCV [6]; increasing adverse events at the highest dose (4500 mg)) was “generally well-tolerated”.
For interferon-α, the “delay before HCV RNA decline” value (HCV [7]; IFN or IFN plus ribavirin) is listed as 7 to 10 h, the “fall of HCV RNA in the first phase (1-2 days), on average” value (HCV [7]; genotype 1 infected patients) is listed as 1-2 logs and the “therapeutic effectiveness of the combination” value (HCV [1]; ribavirin combined with interferon-α, genotype 1 population) is listed as 29%.
In the case of `CC(C)(C)OC(=O)N[C@H]1CCCCC/C=C\[C@@H]2C[C@@]2(C(=O)NS(=O)(=O)C2CC2)NC(=O)[C@@H]2C[C@@H](OC(=O)N3Cc4cccc(F)c4C3)CN2C1=O` [ITMN-191], the safety and tolerability (preliminary safety data, doses intended for Phase 1b) is listed as “well tolerated and safe”, the serious adverse events (single ascending dose, healthy subjects) is listed as “no serious adverse events were reported” and the safety and tolerability [8] is listed as “safe and well-tolerated”.
For `COc1ccc2c(O[C@@H]3C[C@H]4C(=O)N[C@]5(C(=O)NS(=O)(=O)C6CC6)C[C@H]5/C=C\CCCCN(C)C(=O)[C@@H]4C3)cc(-c3nc(C(C)C)cs3)nc2c1C` [TMC435350], the tolerability (HCV genotype 1) is given as “well tolerated”, the antiviral activity (HCV genotype 1; genotype 1 infected individuals) is given as “strong and rapid antiviral activity” and the appearance of drug-resistance ([9]; combination with interferon) is given as “suppress the appearance of drug-resistance”. The RNA reduction ([9]; combination with interferon, replicon model) was greater than 4 logs and the “effect on Hepatitis C virus replication” value ([9]; replicon experiments, via protease inhibition) was “reduce the amount of Hepatitis C virus replication”.
